This is an account of results in patent publication US8466155B2, “Pyrimidines” (Boehringer Ingelheim International GmbH, priority 2009, dated 2013).

For this assay, the target named is T1, PTK2 (Homo sapiens, UniProt Q05397).
T1 construct: purchased Invitrogen PV3832
The assay is described as follows: PTK2 enzyme test, Assay 1 (DELFIA, PT60 antibody). The format is biochemical. To be noted: 1 h pre-incubation, 1 h kinase reaction, values without *. The protocol:
This test uses active PTK2 enzyme (Invitrogen Code PV3832) and poly-Glu-Tyr (4:1, Sigma P-0275) as the kinase substrate. The kinase activity is detected through the phosphorylation of the substrate in a DELFIA™ assay. The phosphorylated substrate is detected with the europium-labelled phosphotyrosine antibody PT60 (Perkin Elmer, No.: AD00400).
In order to determine concentration-activity curves with PTK2-inhibitors the compounds are serially diluted in 10% DMSO/H20 and 10 μL of each dilution are placed in each well of a 96-well microtitre plate (clear plate with a U-shaped base, Greiner No. 650101) (the inhibitors are tested in duplicates) and mixed with 10 μL/well of PTK2 kinase (0.01 μg/well). PTK2 kinase has been correspondingly diluted beforehand with kinase dilution buffer (20 mM TRIS/HCl pH 7.5, 0.1 mM EDTA, 0.1 mM EGTA, 0.286 mM sodium orthovanadate, 10% glycerol with the addition of freshly prepared BSA (fraction V, 1 mg/mL) and DTT (1 mM)). The test compound and the PTK2 kinase are pre-incubated for 1 h at RT and shaken at 500 revolutions per min. The reaction is started by the addition of 10 μL/well poly (Glu,Tyr) substrate (25 μg/well poly (Glu, Tyr), 0.05 μg/well biotinylated poly (Glu,Tyr) dissolved in 250 mM TRIS/HCl pH 7.5, 9 mM DTT)—the final concentration of DMSO is 2%. Then 20 μL of ATP Mix (30 mM TRIS/HCl pH 7.5, 0.02% Brij, 0.2 mM sodium orthovanadate, 10 mM magnesium acetate, 0.1 mM EGTA, 1× phosphatase inhibitor cocktail 1 (Sigma, No.: P2850), 50 μM ATP (Sigma, No.: A3377; 15 mM stock solution)) are added. After 1 h of kinase reaction (the plates are shaken at 500 rpm), the reaction is stopped by the addition of 12 μL/well 100 mM EDTA, pH 8.0 and shaken for a further 5 min at RT (500 rpm). 55 μL of the reaction mixture are transferred into a streptavidin plate (Strepta Well High Bind (transparent, 96-well) made by Roche, No.: 11989685001) and incubated for 1 h at RT (shaking at 500 rpm). Then the microtitre plate is washed three times with 200 μL/well D-PBS (Invitrogen, No. 14190). 100 μL of a solution containing DELFIA Eu-N1 Anti-Phosphotyrosine PT60 antibody (Perkin Elmer, No.: AD0040, diluted 1:2000 in DELFIA test buffer (Perkin Elmer, No.: 1244-111)) is then added and the mixture is incubated for 1 h at RT (shaking at 500 rpm). Then the plate is washed three times with 200 μL/well DELFIA washing buffer (Perkin Elmer, No.: 1244-114), 200 μL/well strengthening solution (Perkin Elmer, No.: 1244-105) are added and the mixture is incubated for 10 min at RT (shaking at 300 rpm).
The time-delayed europium fluorescence is then measured in a microtitre plate reader (VICTOR^3, Perkin Elmer). […] Wells that contain test buffer instead of enzyme are used as a control of the background kinase activity.
The IC50 values are determined from analyses of the concentration activity by iterative calculation with the aid of a sigmoid curve analysis algorithm (FIFTY, based on GraphPAD Prism Version 3.03) with a variable Hill coefficient.

SMILES strings stand for the structures.

T1 sequence (Q05397 whole entry): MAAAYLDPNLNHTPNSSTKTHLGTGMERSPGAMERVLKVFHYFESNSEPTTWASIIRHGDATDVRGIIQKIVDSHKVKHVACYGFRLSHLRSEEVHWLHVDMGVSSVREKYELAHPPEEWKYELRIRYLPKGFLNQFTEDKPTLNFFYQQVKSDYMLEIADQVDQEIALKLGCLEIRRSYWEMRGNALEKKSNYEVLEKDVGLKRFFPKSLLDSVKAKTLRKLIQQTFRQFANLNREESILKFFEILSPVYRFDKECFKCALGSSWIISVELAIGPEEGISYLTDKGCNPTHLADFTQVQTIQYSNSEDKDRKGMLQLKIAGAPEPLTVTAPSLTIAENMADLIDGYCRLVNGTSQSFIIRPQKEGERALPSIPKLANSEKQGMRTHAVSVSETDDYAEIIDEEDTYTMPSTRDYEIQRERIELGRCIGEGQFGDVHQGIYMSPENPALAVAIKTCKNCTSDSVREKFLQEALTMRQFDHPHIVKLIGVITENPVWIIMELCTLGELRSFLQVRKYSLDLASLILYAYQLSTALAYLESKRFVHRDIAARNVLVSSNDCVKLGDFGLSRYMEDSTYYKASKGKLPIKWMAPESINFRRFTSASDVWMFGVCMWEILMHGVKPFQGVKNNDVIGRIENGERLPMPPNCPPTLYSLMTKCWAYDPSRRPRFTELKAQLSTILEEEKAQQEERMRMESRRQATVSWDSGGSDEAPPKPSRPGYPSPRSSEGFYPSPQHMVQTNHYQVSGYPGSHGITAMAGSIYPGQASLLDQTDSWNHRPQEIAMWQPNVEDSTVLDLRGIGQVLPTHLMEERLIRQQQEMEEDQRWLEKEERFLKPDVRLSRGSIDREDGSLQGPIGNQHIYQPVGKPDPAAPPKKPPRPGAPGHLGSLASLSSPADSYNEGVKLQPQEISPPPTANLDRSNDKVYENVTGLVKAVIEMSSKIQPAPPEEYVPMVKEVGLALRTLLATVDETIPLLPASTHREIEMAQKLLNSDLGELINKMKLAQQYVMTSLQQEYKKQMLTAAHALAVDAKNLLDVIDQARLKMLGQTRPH

As usually defined, the IC50 is the concentration that inhibits the measured activity by half. The molecule `COc1cc(C(=O)NCCN(C)C)c(Cl)cc1Nc1ncc(Cl)c(O[C@@H]2Cc3ccccc3[C@H]2N(C)S(C)(=O)=O)n1` [Example 40] returned a concentration for half-maximal inhibition (IC50) of 3 nM.

Take `COc1cc(C(=O)NCCCN(C)C)c(Cl)cc1Nc1ncc(Cl)c(O[C@@H]2Cc3ccccc3[C@H]2N(C)S(C)(=O)=O)n1` [Example 41]: the 50% inhibitory concentration (IC50) was found to be 2 nM. Turning to `COc1cc(C(=O)NC[C@@H](O)CO)c(Cl)cc1Nc1ncc(Cl)c(O[C@@H]2Cc3ccccc3[C@H]2N(C)S(C)(=O)=O)n1` [Example 42], it took 4 nM to reach half-maximal inhibition (IC50). Under `CONC(=O)c1cc(OC)c(Nc2ncc(Cl)c(O[C@@H]3Cc4ccccc4[C@H]3N(C)S(C)(=O)=O)n2)cc1F` [Example 43] stands 22 nM; under `CCS(=O)(=O)N[C@@H]1CCC[C@H]1Oc1nc(Nc2cc(F)c(C(=O)NC3CCN(C)CC3)cc2OC)ncc1C(F)(F)F` [Example 44], 6 nM; under `COc1cc(C(=O)NC2CCN(C)CC2)c(F)cc1Nc1ncc(C(F)(F)F)c(O[C@@H]2CCC[C@H]2NS(=O)(=O)CCl)n1` [Example 45], 5 nM.

`COc1cc(C(=O)NC2CCN(C)CC2)c(F)cc1Nc1ncc(C(F)(F)F)c(O[C@@H]2CCC[C@H]2NS(=O)(=O)C2CC2)n1` [Example 46] returned an IC50 of 34 nM. The molecule `COc1cc(C(=O)NC2CCN(C)CC2)c(Cl)cc1Nc1ncc(C(F)(F)F)c(O[C@@H]2CCC[C@H]2NS(=O)(=O)CCl)n1` [Example 47] came in with a concentration for half-maximal inhibition (IC50) of 3 nM. `COc1cc(C(=O)NC2CCN(C)CC2)c(Cl)cc1Nc1ncc(C(F)(F)F)c(O[C@@H]2CCC[C@H]2NS(=O)(=O)C2CC2)n1` [Example 48] returned an IC50 of 22 nM.

For the molecule `COc1cc(C(=O)NC[C@H](O)CO)ccc1Nc1ncc(C(F)(F)F)c(O[C@@H]2Cc3ccccc3[C@H]2N(C)S(C)(=O)=O)n1` [Example 49], the midpoint of inhibition, the IC50, lay at 5 nM. This IC50 is about 4.4-fold lower than that of the molecule before.

Consider `COc1cc(C(=O)NC[C@@H](O)CO)ccc1Nc1ncc(C(F)(F)F)c(O[C@@H]2Cc3ccccc3[C@H]2N(C)S(C)(=O)=O)n1` [Example 50], for which half-maximal inhibition (IC50) required 4 nM. Molecule `COc1cc(C(=O)NC[C@@H](O)CO)c(F)cc1Nc1ncc(Cl)c(O[C@@H]2Cc3ccccc3[C@H]2N(C)S(C)(=O)=O)n1` [Example 51] returned an IC50 of 13 nM. With `COc1cc(C(=O)NCCn2ccnc2C)c(F)cc1Nc1ncc(Cl)c(O[C@@H]2Cc3ccccc3[C@H]2N(C)S(C)(=O)=O)n1` [Example 52], the midpoint of inhibition, the IC50, lay at 6 nM. The molecule `COc1cc(C(=O)NCCN(C)C)c(F)cc1Nc1ncc(Cl)c(O[C@@H]2Cc3ccccc3[C@H]2N(C)S(C)(=O)=O)n1` [Example 53] registered an IC50 of 4 nM. `COc1cc(C(=O)N(C)C)c(F)cc1Nc1ncc(Cl)c(O[C@@H]2Cc3ccccc3[C@H]2N(C)S(C)(=O)=O)n1` [Example 54] came in with an IC50 of 92 nM. With `COc1cc(C(=O)N[C@H]2CC[C@H](O)CC2)c(F)cc1Nc1ncc(Cl)c(O[C@@H]2Cc3ccccc3[C@H]2N(C)S(C)(=O)=O)n1` [Example 55], the IC50 is 6 nM. Regarding `COc1cc(C(=O)NC[C@H](O)CO)c(F)cc1Nc1ncc(Cl)c(O[C@@H]2Cc3ccccc3[C@H]2N(C)S(C)(=O)=O)n1` [Example 56], the IC50 amounted to 9 nM. Compared with the last molecule, the IC50 is about 1.5-fold higher. As for `COc1cc(C(=O)NCCN2CCN(C)CC2)c(F)cc1Nc1ncc(Cl)c(O[C@@H]2Cc3ccccc3[C@H]2N(C)S(C)(=O)=O)n1` [Example 57], the IC50 was found to be 2 nM.

With `COc1cc(C(=O)N[C@H]2CC[C@H](N3CCN(CC4CC4)CC3)CC2)c(F)cc1Nc1ncc(Cl)c(O[C@@H]2Cc3ccccc3[C@H]2N(C)S(C)(=O)=O)n1` [Example 58], it took 6 nM to reach half-maximal inhibition (IC50). For `COc1cc(C(=O)NN2CCN(C)CC2)c(F)cc1Nc1ncc(Cl)c(O[C@@H]2Cc3ccccc3[C@H]2N(C)S(C)(=O)=O)n1` [Example 59], the half-inhibitory concentration (IC50) is 6 nM. Under `COc1cc(C(=O)NCCCN(C)C)c(F)cc1Nc1ncc(Cl)c(O[C@@H]2Cc3ccccc3[C@H]2N(C)S(C)(=O)=O)n1` [Example 60] stands 3 nM; under `COc1cc(C(=O)NC2CCN(C)CC2)c(Cl)cc1Nc1ncc(Cl)c(O[C@@H]2Cc3ccccc3[C@H]2N(C)S(C)(=O)=O)n1` [Example 62], 3 nM. As for `COc1cc(C(=O)NN2CCN(C)CC2)c(Cl)cc1Nc1ncc(Cl)c(O[C@@H]2Cc3ccccc3[C@H]2N(C)S(C)(=O)=O)n1` [Example 63], the IC50 came to 3 nM.

`COc1cc(C(=O)NC[C@@H](O)CO)c(F)cc1Nc1ncc(C(F)(F)F)c(O[C@@H]2Cc3ccccc3[C@H]2N(C)S(C)(=O)=O)n1` [Example 64]: the concentration for half-maximal inhibition (IC50) was found to be 6 nM. Consider `COc1cc(C(=O)NC[C@H](O)CO)c(F)cc1Nc1ncc(C(F)(F)F)c(O[C@@H]2Cc3ccccc3[C@H]2N(C)S(C)(=O)=O)n1` [Example 65], for which the midpoint of inhibition, the IC50, lay at 10 nM. Compared with the last molecule, the IC50 is about 1.7-fold higher. On to `COc1cc(C(=O)NCC2CC2)c(F)cc1Nc1ncc(Cl)c(O[C@@H]2Cc3ccccc3[C@H]2N(C)S(C)(=O)=O)n1` [Example 66], for which the IC50 stood at 16 nM. `CNC(=O)c1cc(OC)c(Nc2ncc(Cl)c(O[C@@H]3Cc4ccccc4[C@H]3N(C)S(C)(=O)=O)n2)cc1F` [Example 67] displayed an IC50 of 16 nM. Take `COc1cc(C(=O)NC2CCN(C)CC2)ccc1Nc1ncc(C(F)(F)F)c(O[C@@H]2Cc3ccccc3[C@H]2NC(C)=O)n1` [Example 68, 4-[4-((1R,2R)-1-acetylamino-indan-2-yloxy)-5-trifluoromethyl-pyrimidin-2-ylamino]-3-methoxy-N-(1-methyl-piperidin-4-yl)-benzamide]: the IC50 came out at 2 nM. As for `COc1cc(C(=O)NC2CCN(C)CC2)ccc1Nc1ncc(C(F)(F)F)c(O[C@@H]2Cc3ccccc3[C@@H]2N(C)S(C)(=O)=O)n1` [Example 69], the figure is 42 nM. Consider `COc1cc(C(=O)NC2CCN(C)CC2)ccc1Nc1ncc(C(F)(F)F)c(O[C@H]2Cc3ccccc3[C@H]2N(C)S(C)(=O)=O)n1` [Example 70], for which half-maximal inhibition (IC50) was put at 238 nM. In turn, `COc1cc(C(=O)NC2CCN(C)CC2)ccc1Nc1ncc(C(F)(F)F)c(O[C@@H]2Cc3ccccc3[C@@H]2NC(C)=O)n1` [Example 72] registered an IC50 of 174 nM. For the molecule `COc1cc(C(=O)NN2CCN(C)CC2)ccc1Nc1ncc(C(F)(F)F)c(O[C@@H]2CCC[C@H]2NS(C)(=O)=O)n1` [Example 73], the concentration for half-maximal inhibition (IC50) was found to be 2 nM. Against the preceding molecule, the IC50 is about 87-fold lower. In turn, `COc1cc(C(=O)NC2CCN(C)CC2)c(Cl)cc1Nc1ncc(C(F)(F)F)c(O[C@@H]2CCCC[C@H]2N(C)S(C)(=O)=O)n1` [Example 74, 2-chloro-4-{4-[(1R,2R)-2-(methanesulphonyl-methyl-amino)-cyclohexyloxy]-5-trifluoromethyl-pyrimidin-2-ylamino}-5-methoxy-N-(1-methyl-piperidin-4-yl)-benzamide] registered a 50% inhibitory concentration (IC50) of 0.42 nM. On to `COc1cc(C(=O)NC2CCN(C)CC2)c(F)cc1Nc1ncc(C(F)(F)F)c(O[C@@H]2CCCC[C@H]2N(C)S(C)(=O)=O)n1` [Example 75, 2-fluoro-4-{4-[(1R,2R)-2-(methanesulphonyl-methyl-amino)-cyclohexyloxy]-5-trifluoromethyl-pyrimidin-2-ylamino}-5-methoxy-N-(1-methyl-piperidin-4-yl)-benzamide], for which the half-maximal inhibitory concentration (IC50) stood at 0.31 nM. In the case of `COc1cc(C(=O)NC2CCN(C)CC2)ccc1Nc1ncc(C(F)(F)F)c(O[C@@H]2CCCC[C@H]2N(C)S(C)(=O)=O)n1` [Example 76], the IC50 was 0.29 nM.
